Source: patent publication US8603989B2, “Method for treating and preventing kidney stones employing an SGLT2 inhibitor and composition containing same” (Bristol-Myers Squibb Company, priority 2008, dated 2013)

How the values were obtained:
patients with diabetes = details: patients with diabetes, 5, 25 or 100 mg
Excerpt: The levels of urine glucose of all subjects are shown in the plot and the mean urine glucose is in the darker lines.

type 2 diabetic patients = test system: type 2 diabetic patients
Excerpt: C-aryl glucoside SGLT2 inhibitors are known to reduce blood glucose levels in diabetic patients, see U.S. Pat. No. 6,774,112, which is incorporated herein by reference in its entirety, but not known to increase urine volume. […] Metformin reduces plasma glucose concentration by non-renal mechanisms and is not known to induce glucosuria. […] On day 1 and day 14, the patients were examined for the levels of glucosuria and changes in urine volumes.

healthy subjects = details: healthy subjects, 5, 20, 50 or 100 mg, within 24 hours, indirect comparison
diabetic patients = assay: 12-week treatment of diabetic patients: urine glucose, HbA1c, urine volume (Table 5); assay type: in vivo, human
[1] = test system: human SGLT2 (hSGLT2) relative to human SGLT1 (hSGLT1); details: ratio of EC50 in favor of SGLT2
Description: Selectivity for SGLT2 of a given inhibitor can be determined by comparing the EC50 values measured in the SGLT1 and SGLT2 assay. […] Cells expressing hSGLT1 or hSGLT2 were maintained using standard cell culture techniques. Assays for sodium-dependent glucose transport in 96-well plates were initiated by adding 100 μl/well of protein-free assay buffer containing sodium (Hepes/Tris pH 7.4, 137 mM NaCl, 5.4 mM KCl, 2.8 mM CaCl2, 1.2 mM MgSO4), 10 μM ^14C-AMG and inhibitor or dimethyl sulfoxide (DMSO) vehicle, and plates were incubated for 2 h at 37° C. Sodium-dependent ^14C-AMG uptake was calculated by subtracting the counts per minute (CPM) observed under sodium-free uptake conditions from the counts observed under sodium-containing conditions. Inhibitors were assayed at various concentrations in triplicate in the presence of sodium, and the percent inhibition was calculated by comparing CPM in inhibitor-containing wells with CPM in wells containing only DMSO vehicle. Phlorizin, a known SGLT inhibitor, was evaluated in parallel in every assay. A dose-response curve was fitted to an empirical four-parameter model using XL Fit (IDBS, Guilford, UK) to determine the inhibitor concentration at half-maximal response (EC50). SGLT2 selectivity is represented as a ratio of EC50 in favor of SGLT2.

[2] = 2.5-50 mg, after 12 weeks of treatment

CCOc1ccc(Cc2cc([C@@H]3O[C@H](CO)[C@@H](O)[C@H](O)[C@H]3O)ccc2Cl)cc1 [dapagliflozin PGS, dapagliflozin (S)-propylene glycol solvate]
urine glucose excretion compared to placebo (patients with diabetes): higher
fasting serum glucose (FSG) levels (type 2 diabetic patients; two-week period): Dose-dependent reduction
postprandial glucose levels in oral glucose tolerance tests (OGTT) (type 2 diabetic patients; two-week period): reduced
urine volumes (type 2 diabetic patients; two-week period): no increase
urinary glucose levels within a 24-hour time period (type 2 diabetic patients; versus placebo, FIG. 3): increased
glucosuric effect, loss of calories in the urine as compared to GSK 869,682 (healthy subjects): significant loss of calories in the urine
OGT (diabetic patients; [2]): improved
reduced HbAlC levels (diabetic patients; [2]): 0.71-0.9%

CN(C)C(=N)N=C(N)N [Metformin, reference compound]
HbA1c reduction from baseline (diabetic patients; 1500 mg metformin, 12 weeks): 0.73%

CCOc1ccc(Cc2cc([C@@H]3O[C@H](CO)[C@@H](O)[C@H](O)[C@H]3O)ccc2Cl)cc1 [dapagliflozin]
selectivity for SGLT2 relative to SGLT1 [1]: High selectivity for SGLT2
